Reference: patent EP4790063A1, “PEPTIDE HAVING ACTIVITY FOR […] OF MARINE FOULING” (National University Corporation Hokkaido University, priority 2023, dated 2025)
Like-named read-outs stand apart in the source and are kept apart here. Non-standard residues stand in square brackets, D forms with d. Residues, ends and D or L forms follow the SMILES beside them. ξ: configuration not given here. *: point of attachment. d(β3hL) = CC(C)C[C@@H](N)CC(=O)O; hPhe = N[C@@H](CCc1ccccc1)C(=O)O; ξβ3hL = CC(C)CC(N)CC(=O)O; Boc = CC(C)(C)OC(=O)*; ξβ3hA = CC(N)CC(=O)O; OBn = c1ccc(CO*)cc1; GABA = NCCCC(=O)O; βAla = NCCC(=O)O

What was measured:
[1] = system: cypris larvae of Striped Barnacle
Method: (§1) After solutions of about 2 mL of the test compounds (tripeptides 2 to 10 and dipeptide 11) in ethanol were dispensed into each well of the 24-well polystyrene multi-well plate (3.2 mL/well, well diameter 15.5 mm, well height 17.6 mm, manufactured by Corning), the multi-well plate was air-dried to evaporate the ethanol.
(§2) The test compounds were aliquoted to achieve final concentrations of 0.03, 0.1, 0.3, 1, 3, and 10 µg/mL.
(§3) Subsequently, six individuals of the cypris larvae of Striped Barnacle (hereinafter simply referred to as "barnacle larvae") were transplanted into each well along with 2 mL of pre-filtered natural seawater. The multi-well plate was left standing in an incubator at 25°C, and the barnacle larvae were allowed to grow for two days at 25°C.
In the above procedure, a test for the control group was conducted by dispensing an ethanol solution without any test compound. […]
Forty-eight hours after the test started, the number of adhered individuals and the number of dead individuals of the barnacle larvae in each well were counted under a stereomicroscope. The adhesion rate (%) and mortality rate (%) of the barnacle larvae in each well were calculated, respectively. […]

[2] = system: juvenile shellfish of Mediterranean mussel
Method: The sample was dissolved in ethanol to adjust to a concentration of 1 mg/mL. Thirty and 100 µL (30 and 100 µg) of the sample solutions were mixed with the solvent, and the mixtures were brought to a total volume of 500 µL. These mixtures were spread on the bottom surface of the glass beaker of the test container, and the solvent was volatilized by shaking them overnight.
A volume of 10 mL of the test seawater was added to the glass beakers of the test containers. The tests were initiated by introducing twelve test individuals into the test seawater in each beaker. The tests ended after three days, and the observation was conducted.
In Table 2, the terms "bottom surface-adhered individuals" and "wall surface-adhered individuals" refer to individuals that are adhered to the bottom surface and wall surface of the beaker, respectively; the term "bottom surface-crawling individuals" refers to individuals that move along the bottom surface without adhering; the term "overturned individuals or closed shell individuals (unadhered)" refers to individuals that are either overturned or in a closed shell without adhering to the bottom surface; and the term "number of byssal threads on the bottom surface" refers to the number of foot threads that are fixed to the bottom surface. In particular, the greater the reduction in the number of byssal threads, the stronger the effect of adhesion prevention.

[3] = system: cypris larvae of Striped Barnacle; experiment: Evaluation of antifouling activities and toxicity against the cypris larvae of Striped Barnacle (24-well plate, adhesion and mortality after 48 h); type: in vivo, Amphibalanus amphitrite
Method: as §1, §2, §3
In the above procedure, a test for the control group was conducted by dispensing an ethanol solution without any test compound. The natural seawater used in the above test was prepared by diluting the natural seawater collected from the coastal area near Onjuku, Chiba Prefecture (salt concentration: 36 g/kg) with distilled water to adjust a salt concentration of 32 g/kg.
In the test group, the control group, and the comparison group, the tests were conducted in four times (four wells) for one concentration of each test compounds.
Forty-eight hours after the test started, the number of adhered individuals and the number of dead individuals of the barnacle larvae in each well were counted under a stereomicroscope. The adhesion rate (%) and mortality rate (%) of the barnacle larvae in each well were calculated, respectively. […] Similarly, for each test compound, a dose-mortality response curve was created to determine the half-maximal lethal concentration (48h LC50) that causes 50% mortality in the barnacle larvae. As a reference, the value of Boc-3 obtained from non-Patent literature 8 is also described.
In particular, the lower the settlement rate, the stronger the antifouling effect.

[4] = system: juvenile shellfish of Mediterranean mussel; experiment: Evaluation of the antifouling activity and toxicity against the juvenile shellfish of Mediterranean mussel (coated glass beaker, 3 days); type: in vivo, Mytilus galloprovincialis; details: for bottom surface-adhered individuals % / bottom surface-crawling individuals % / overturned individuals or closed shell individuals (unadhered) % / wall surface-adhered individuals % / number of byssal threads on the bottom surface / bottom surface-adhered individuals No. / bottom surface-crawling individuals No. / overturned individuals or closed shell individuals (unadhered) No. / wall surface-adhered individuals No.: three days; for bottom surface-adhered individuals No. / bottom surface-crawling individuals No. / overturned individuals or closed shell individuals (unadhered) No. / wall surface-adhered individuals No.: twelve individuals; for antifouling effect (overall determination in words): juvenile Mediterranean mussel, 3.0 µg/mL and 10 µg/mL
Method: The sample was dissolved in ethanol to adjust to a concentration of 1 mg/mL. Thirty and 100 µL (30 and 100 µg) of the sample solutions were mixed with the solvent, and the mixtures were brought to a total volume of 500 µL. These mixtures were spread on the bottom surface of the glass beaker of the test container, and the solvent was volatilized by shaking them overnight. As a result, the samples to be evaluated were coated only on the bottom surface of the glass beaker.

[5] = Test Example 1, concentration that prevents adhesion of barnacle larvae by 50%, 48 h, 25°C, tested 0.03-10 µg/mL
[6] = Test Example 3, same manner as Test Example 1
[7] = 3 µg/mL (30 µg), twelve individuals, three days
[8] = Table 4 summary of results from Test Examples 1 to 3 (rounded)
[9] = Test Example 1, concentration causing 50% mortality in barnacle larvae, 48 h, 25°C, tested 0.03-10 µg/mL
[10] = 3 µg/mL (30 µg), control group 118

SMILES: O=S(=O)([O-])[O-].[Cu+2] [Copper sulfate]
- Antifouling activity 48h EC50 [1, 5]: 0.41 µg/mL
- Antifouling activity 48h EC50 [1, 6]: 0.3 µg/mL
- bottom surface-adhered individuals % ([2]; 3 µg/mL (30 µg), three days): 0.0%
- bottom surface-crawling individuals % ([2]; 3 µg/mL (30 µg), three days): 0.0%
- overturned individuals or closed shell individuals (unadhered) % ([2]; 3 µg/mL (30 µg), three days): 100.0%
- wall surface-adhered individuals % ([2]; 3 µg/mL (30 µg), three days): 0.0%
- number of byssal threads on the bottom surface ([2]; 3 µg/mL (30 µg), three days, control group 118): 2
- bottom surface-adhered individuals No. [2, 7]: 0
- bottom surface-crawling individuals No. [2, 7]: 0
- overturned individuals or closed shell individuals (unadhered) No. [2, 7]: 12
- wall surface-adhered individuals No. [2, 7]: 0
- antifouling effect (overall determination in words) ([2]; juvenile Mediterranean mussel, 3.0 µg/mL and 10 µg/mL): high

SMILES: CCOC(=O)[C@H](C)NC(=O)[C@@H]1CCCN1C(=O)[C@H](Cc1ccccc1)NC(=O)OC(C)(C)C [tripeptide 2] (Boc-Phe-Pro-Ala-OEt)
- Antifouling activity 48h EC50 [3, 8]: >10 µg/mL
- Toxicity 48h LC50 [3, 9]: >10 µg/mL
- Antifouling activity 48h EC50 [3, 5]: >10 µg/mL

SMILES: CC(CC(=O)OCc1ccccc1)NC(=O)[C@@H]1CCCN1C(=O)[C@H](Cc1ccccc1)NC(=O)OC(C)(C)C (stereo partly drawn) [tripeptide 9] (Boc-Phe-Pro-[ξβ3hA]-OBn)
- bottom surface-adhered individuals % ([4]; 3 µg/mL (30 µg)): 75.0%
- bottom surface-crawling individuals % ([4]; 3 µg/mL (30 µg)): 0.0%
- overturned individuals or closed shell individuals (unadhered) % ([4]; 3 µg/mL (30 µg)): 16.7%
- wall surface-adhered individuals % ([4]; 3 µg/mL (30 µg)): 8.3%
- number of byssal threads on the bottom surface [4, 10]: 73
- bottom surface-adhered individuals No. ([4]; 3 µg/mL (30 µg)): 9
- bottom surface-crawling individuals No. ([4]; 3 µg/mL (30 µg)): 0
- overturned individuals or closed shell individuals (unadhered) No. ([4]; 3 µg/mL (30 µg)): 2
- wall surface-adhered individuals No. ([4]; 3 µg/mL (30 µg)): 1
- bottom surface-adhered individuals % ([4]; 10 µg/mL (100 µg)): 58.3%
- bottom surface-crawling individuals % ([4]; 10 µg/mL (100 µg)): 0.0%
- number of byssal threads on the bottom surface ([4]; 10 µg/mL (100 µg)): 34
- overturned individuals or closed shell individuals (unadhered) % ([4]; 10 µg/mL (100 µg)): 33.3%
- wall surface-adhered individuals % ([4]; 10 µg/mL (100 µg)): 8.3%
- bottom surface-adhered individuals No. ([4]; 10 µg/mL (100 µg)): 7
- bottom surface-crawling individuals No. ([4]; 10 µg/mL (100 µg)): 0
- overturned individuals or closed shell individuals (unadhered) No. ([4]; 10 µg/mL (100 µg)): 4
- wall surface-adhered individuals No. ([4]; 10 µg/mL (100 µg)): 1
- antifouling effect (overall determination in words) [4]: effective

SMILES: CCOC(=O)[C@H](CC(C)C)NC(=O)[C@@H]1CCCN1C(=O)[C@H](Cc1ccccc1)NC(=O)OC(C)(C)C [tripeptide 3] (Boc-Phe-Pro-Leu-OEt)
- Antifouling activity 48h EC50 [3, 8]: >10 µg/mL

SMILES: CCOC(=O)CCCNC(=O)[C@@H]1CCCN1C(=O)[C@H](Cc1ccccc1)NC(=O)OC(C)(C)C [tripeptide 5] (Boc-Phe-Pro-[GABA]-OEt)
- Antifouling activity 48h EC50 [3, 8]: >10 µg/mL
- Toxicity 48h LC50 [3, 9]: >10 µg/mL
- Antifouling activity 48h EC50 [3, 5]: >10 µg/mL

SMILES: CC(C)(C)OC(=O)N1CCC[C@H]1C(=O)Nc1ccccc1C(=O)OCc1ccccc1 [dipeptide 13, reference compound]
- Antifouling activity 48h EC50 [3, 8]: 0.8 µg/mL
- Antifouling activity 48h EC50 [3, 6]: 0.84 µg/mL
- Toxicity 48h LC50 [3, 6]: >10 µg/mL

SMILES: CCOC(=O)CCNC(=O)[C@@H]1CCCN1C(=O)[C@H](Cc1ccccc1)NC(=O)OC(C)(C)C [tripeptide 4] (Boc-Phe-Pro-[βAla]-OEt)
- Antifouling activity 48h EC50 [3, 8]: >10 µg/mL
- Toxicity 48h LC50 [3, 9]: >10 µg/mL
- Antifouling activity 48h EC50 [3, 5]: >10 µg/mL

SMILES: CC(C)(C)OC(=O)N1CCC[C@H]1C(=O)N[C@@H](CC(=O)OCc1ccccc1)c1ccccc1 [dipeptide 14]
- Antifouling activity 48h EC50 [3, 8]: 3.2 µg/mL
- Antifouling activity 48h EC50 [3, 6]: 3.18 µg/mL
- Toxicity 48h LC50 [3, 6]: >10 µg/mL

SMILES: CC(C)CC(CC(=O)OCc1ccccc1)NC(=O)[C@@H]1CCCN1C(=O)[C@H](Cc1ccccc1)NC(=O)OC(C)(C)C (stereo partly drawn) [tripeptide 8] (Boc-Phe-Pro-[ξβ3hL]-OBn)
- bottom surface-adhered individuals % ([4]; 3 µg/mL (30 µg)): 16.7%
- bottom surface-crawling individuals % ([4]; 3 µg/mL (30 µg)): 0.0%
- overturned individuals or closed shell individuals (unadhered) % ([4]; 3 µg/mL (30 µg)): 58.3%
- wall surface-adhered individuals % ([4]; 3 µg/mL (30 µg)): 25.0%
- number of byssal threads on the bottom surface [4, 10]: 25
- bottom surface-adhered individuals No. ([4]; 3 µg/mL (30 µg)): 2
- bottom surface-crawling individuals No. ([4]; 3 µg/mL (30 µg)): 0
- overturned individuals or closed shell individuals (unadhered) No. ([4]; 3 µg/mL (30 µg)): 7
- wall surface-adhered individuals No. ([4]; 3 µg/mL (30 µg)): 3
- bottom surface-adhered individuals % ([4]; 10 µg/mL (100 µg)): 16.7%
- bottom surface-crawling individuals % ([4]; 10 µg/mL (100 µg)): 0.0%
- number of byssal threads on the bottom surface ([4]; 10 µg/mL (100 µg)): 12
- overturned individuals or closed shell individuals (unadhered) % ([4]; 10 µg/mL (100 µg)): 83.3%
- wall surface-adhered individuals % ([4]; 10 µg/mL (100 µg)): 0.0%
- bottom surface-adhered individuals No. ([4]; 10 µg/mL (100 µg)): 2
- bottom surface-crawling individuals No. ([4]; 10 µg/mL (100 µg)): 0
- overturned individuals or closed shell individuals (unadhered) No. ([4]; 10 µg/mL (100 µg)): 10
- wall surface-adhered individuals No. ([4]; 10 µg/mL (100 µg)): 0
- antifouling effect (overall determination in words) [4]: exhibit an antifouling effect
- antifouling effect (overall determination in words) ([4]; listed as compound 8): effective
- Antifouling activity 48h EC50 [3, 8]: 1.1 µg/mL
- Toxicity 48h LC50 [3, 9]: >10 µg/mL
- Antifouling activity 48h EC50 [3, 5]: 1.13 µg/mL
- antifouling activity (in words) ([3]; cypris larvae of Striped Barnacle, within the tested concentration range): effective

SMILES: CC(C)C(NC(=O)[C@@H]1CCCN1C(=O)[C@H](Cc1ccccc1)NC(=O)OC(C)(C)C)C(C)C(=O)O (stereo partly drawn) [tripeptide 7]
- Antifouling activity 48h EC50 [3, 8]: >10 µg/mL
- Toxicity 48h LC50 [3, 9]: >10 µg/mL
- Antifouling activity 48h EC50 [3, 5]: >10 µg/mL

SMILES: CC(C)C(NC(=O)[C@@H]1CCCN1C(=O)[C@H](Cc1ccccc1)NC(=O)OC(C)(C)C)C(C)C(=O)OCc1ccccc1 (stereo partly drawn) [tripeptide 6]
- Antifouling activity 48h EC50 [3, 8]: 1.66 µg/mL
- Toxicity 48h LC50 [3, 9]: >10 µg/mL
- Antifouling activity 48h EC50 [3, 5]: 1.63 µg/mL

SMILES: CC(C)C(NC(=O)[C@@H]1CCCN1C(=O)OC(C)(C)C)C(C)C(=O)OCc1ccccc1 (stereo partly drawn) [dipeptide 11]
- Antifouling activity 48h EC50 [3, 8]: 2.4 µg/mL
- Toxicity 48h LC50 [3, 9]: >10 µg/mL
- Antifouling activity 48h EC50 [3, 5]: 2.39 µg/mL

SMILES: CC(C)C[C@H](CC(=O)OCc1ccccc1)NC(=O)[C@@H]1CCCN1C(=O)[C@H](CCc1ccccc1)NC(=O)OC(C)(C)C [tripeptide 12] (Boc-[hPhe]-Pro-[d(β3hL)]-OBn)
- Antifouling activity 48h EC50 [3, 8]: 0.5 µg/mL
- Antifouling activity 48h EC50 [3, 6]: 0.49 µg/mL
- Toxicity 48h LC50 [3, 6]: >10 µg/mL

SMILES: CCOC(=O)CC(C)NC(=O)[C@@H]1CCCN1C(=O)[C@H](Cc1ccccc1)NC(=O)OC(C)(C)C (stereo partly drawn) [tripeptide 10] (Boc-Phe-Pro-[ξβ3hA]-OEt)
- bottom surface-adhered individuals % ([4]; 3 µg/mL (30 µg)): 66.7%
- bottom surface-crawling individuals % ([4]; 3 µg/mL (30 µg)): 0.0%
- overturned individuals or closed shell individuals (unadhered) % ([4]; 3 µg/mL (30 µg)): 8.3%
- wall surface-adhered individuals % ([4]; 3 µg/mL (30 µg)): 25.0%
- number of byssal threads on the bottom surface [4, 10]: 80
- bottom surface-adhered individuals No. ([4]; 3 µg/mL (30 µg)): 8
- bottom surface-crawling individuals No. ([4]; 3 µg/mL (30 µg)): 0
- overturned individuals or closed shell individuals (unadhered) No. ([4]; 3 µg/mL (30 µg)): 1
- wall surface-adhered individuals No. ([4]; 3 µg/mL (30 µg)): 3
- bottom surface-adhered individuals % ([4]; 10 µg/mL (100 µg)): 58.3%
- bottom surface-crawling individuals % ([4]; 10 µg/mL (100 µg)): 0.0%
- number of byssal threads on the bottom surface ([4]; 10 µg/mL (100 µg)): 11.5
- overturned individuals or closed shell individuals (unadhered) % ([4]; 10 µg/mL (100 µg)): 8.3%
- wall surface-adhered individuals % ([4]; 10 µg/mL (100 µg)): 33.3%
- bottom surface-adhered individuals No. ([4]; 10 µg/mL (100 µg)): 7
- bottom surface-crawling individuals No. ([4]; 10 µg/mL (100 µg)): 0
- overturned individuals or closed shell individuals (unadhered) No. ([4]; 10 µg/mL (100 µg)): 1
- wall surface-adhered individuals No. ([4]; 10 µg/mL (100 µg)): 4
- antifouling effect (overall determination in words) [4]: ineffective
